Reference: patent US9481682B2, “Substituted benzamides and substituted pyridinecarboxamides as Btk inhibitors” (MERCK SHARP & DOHME CORP., priority 2013, dated 2016)
Where two headings read alike, the source gives them in different places.

Tests used:
HeLa cells = assay: [3H]Adenosine uptake functional cellular assay; assay type: cell-based; settings: accumulation of [3H]adenosine into HeLa cells, read-out: Adenosine uptake inhibition IC50
Description: Compounds are also screened in an adenosine uptake functional cellular assay using the protocol described below. The adenosine uptake inhibition assay may be used to identify compounds with the potential for a negative cardiovascular side effect.
Adenosine uptake activity was determined by monitoring the accumulation of tritiated adenosine into HeLa cells (ATCC catalog #CCL-2) using a PMT-based radiometric detection instrument. […] These cells were incubated overnight at 37° C. in a humidified atmosphere with 5% (v/v) CO2. After this time the growth medium was removed and replaced with 40 μL assay medium comprising: Hanks balanced salts solution (HBSS; Thermo Fisher Catalog #SH30268.01)+5% (v/v) FBS. […] Following this incubation, 20 μL of 500 nM [^3H]adenosine (American Radiolabeled Chemicals Inc. […] The amount of radiolabel accumulation was then determined using a Perkin Elmer Topcount NXT microplate reader. In brief, HeLa cells adhere to the bottom of the Cytostar-T plate, uptake of [^3H]adenosine into these cells brings the radiolabel into sufficient proximity to excite the scintillant in the base of the plates. These events are captured by single PMT, time-resolved coincidence counting. IC50 values were determined by 4 parameter robust fit of counts per second values vs. (Log10) compound concentrations.

[1] = biological target: hBTK (recombinant full-length BTK) (Homo sapiens (Human), UniProt Q06187); assay: BTK enzymatic activity, LANCE TR-FRET assay; assay type: biochemical; settings: 50 pM hBTK, 2 μM biotin-A5-peptide, 25 μM ATP; 60 minute compound & enzyme incubation
Sequence of hBTK (recombinant full-length BTK) (Q06187 whole entry): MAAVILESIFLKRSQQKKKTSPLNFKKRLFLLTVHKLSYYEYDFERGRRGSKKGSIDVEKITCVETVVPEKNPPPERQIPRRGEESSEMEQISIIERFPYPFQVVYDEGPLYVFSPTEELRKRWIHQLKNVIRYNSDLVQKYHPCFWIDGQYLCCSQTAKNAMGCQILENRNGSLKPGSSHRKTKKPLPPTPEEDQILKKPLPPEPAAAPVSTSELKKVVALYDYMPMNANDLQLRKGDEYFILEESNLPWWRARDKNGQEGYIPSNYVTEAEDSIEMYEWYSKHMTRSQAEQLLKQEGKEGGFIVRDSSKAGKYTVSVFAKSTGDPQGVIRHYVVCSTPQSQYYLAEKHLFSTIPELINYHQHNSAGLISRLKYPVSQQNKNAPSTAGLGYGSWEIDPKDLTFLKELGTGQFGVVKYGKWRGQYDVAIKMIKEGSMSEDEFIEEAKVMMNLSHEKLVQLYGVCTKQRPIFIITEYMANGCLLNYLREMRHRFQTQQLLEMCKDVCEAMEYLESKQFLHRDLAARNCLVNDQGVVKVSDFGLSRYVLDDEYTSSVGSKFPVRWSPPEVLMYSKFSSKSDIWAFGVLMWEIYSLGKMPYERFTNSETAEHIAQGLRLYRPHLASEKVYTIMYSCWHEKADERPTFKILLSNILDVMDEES
Description: BTK enzymatic activity was determined with the LANCE (Lanthanide Chelate Excite) TR-FRET (Time-resolved fluorescence resonance energy transfer) assay. […] Phosphorylation reactions were allowed to proceed for 120 minutes. […] After 60 minutes incubation with detection reagents, reaction plates were read on a PerkinElmer EnVision plate reader using standard TR-FRET protocol. […] IC50 values were determined by 4 parameter robust fit of TR-FRET ratio values vs. (Log10) compound concentrations.

[2] = Homo sapiens, compound range 10 μM to 0.032 nM

| Structure (SMILES) | IC50 (HeLa cells; [2]) | IC50 [1] | IC50 (HeLa cells; compound range 10 μM to […]) |
| --- | --- | --- | --- |
| Nc1nccn2c([C@H]3CC[C@H]4CNCC(=O)N4C3)nc(-c3ccc(C(=O)Nc4cc(C(F)(F)F)ccn4)cc3)c12 [Example 57, 4-{8-amino-3-[(7S,9aS)-4-oxooctahydro-2H-pyrido[1,2-a]pyrazin-7-yl]imidazo[1,5-a]pyrazin-1-yl}-N-[4-(trifluoromethyl)pyridin-2-yl]benzamide] | 10000 nM |  |  |
| Nc1nccn2c([C@@H]3CC[C@@H]4C[C@H](O)C(=O)N4C3)nc(-c3ccc(C(=O)Nc4cc(C(F)(F)F)ccn4)cc3)c12 [Example 72, 4-{8-amino-3-[(2S,6R,8aR)-2-hydroxy-3-oxooctahydroindolizin-6-yl]imidazo[1,5-a]pyrazin-1-yl}-N-[4-(trifluoromethyl)pyridin-2-yl]benzamide] | 730 nM | 0.45 nM |  |
| Nc1nccn2c([C@H]3CC[C@H]4C[C@@H](O)C(=O)N4C3)nc(-c3ccc(C(=O)Nc4cc(C(F)(F)F)ccn4)cc3)c12 [Example 74, 4-{8-amino-3-[(2R,6S,8aS)-2-hydroxy-3-oxooctahydroindolizin-6-yl]imidazo[1,5-a]pyrazin-1-yl}-N-[4-(trifluoromethyl)pyridin-2-yl]benzamide] | 1300 nM | 4.6 nM |  |
| CN1CC[C@@H]2CC[C@@H](c3nc(-c4ccc(C(=O)Nc5cc(C(F)(F)F)ccn5)cc4)c4c(N)nccn34)CN2C1=O [Example 83, 4-(8-amino-3-((4aS,7R)-2-methyl-1-oxooctahydro-1H-pyrido[1,2-c]pyrimidin-7-yl)imidazol[1,5-a]pyrazin-1-yl)-N-(4-(trifluoromethyl)pyridin-2-yl)benzamide] |  | 0.092 nM | 124 nM |
| CN1CC[C@H]2CC[C@H](c3nc(-c4ccc(C(=O)Nc5cc(C(F)(F)F)ccn5)cc4)c4c(N)nccn34)CN2C1=O [Example 84, 4-(8-amino-3-((4aR,7S)-2-methyl-1-oxooctahydro-1H-pyrido[1,2-c]pyrimidin-7-yl)imidazol[1,5-a]pyrazin-1-yl)-N-(4-(trifluoromethyl)pyridin-2-yl)benzamide] |  | 3 nM | 155 nM |
| COc1cc(C(=O)Nc2cc(C(F)(F)F)ccn2)ccc1-c1nc([C@@H]2CC[C@H]3CN(C(=O)c4ccncc4)CC(=O)N3C2)n2ccnc(N)c12 [Example 85, 4-(8-amino-3-((7R,9aS)-2-isonicotinoyl-4-oxooctahydro-1H-pyrido[1,2-a]pyrazin-7-yl)imidazo[1,5-a]pyrazin-1-yl)-3-methoxy-N-(4-(trifluoromethyl)pyridin-2-yl)benzamide] | 2780 nM |  |  |
| NC(=O)c1cc(C(=O)Nc2cc(C(F)(F)F)ccn2)ccc1-c1nc([C@@H]2CC[C@H]3CCC(=O)N3C2)n2ccnc(N)c12 [Example 124, 4-{8-amino-3-[(6R,8aS)-3-oxooctahydroindolizin-6-yl]imidazo[1,5-a]pyrazin-1-yl}-N~1~-[4-(trifluoromethyl)pyridin-2-yl]benzene-1,3-dicarboxamide] | 10000 nM |  |  |
| Cn1nc(NC(=O)c2ccc(-c3nc([C@@H]4CC[C@H]5CCC(=O)N5C4)n4ccnc(N)c34)c(OC3CNC3)c2)cc1C(F)(F)F [Example 149, 4-{8-amino-3-[(6R,8aS)-3-oxooctahydroindolizin-6-yl]imidazo[1,5-a]pyrazin-1-yl}-3-(azetidin-3-yloxy)-N-[1-methyl-5-(trifluoromethyl)-1H-pyrazol-3-yl]benzamide] | 10000 nM |  |  |
| COCCOc1cc(C(=O)Nc2cccc(C(F)(F)F)c2)ccc1-c1nc([C@@H]2CC[C@H]3CCC(=O)N3C2)n2ccnc(N)c12 [Example 199, 4-(8-amino-3-((6R,8aS)-3-oxooctahydroindolizin-6-yl)imidazo[1,5-a]pyrazin-1-yl)-3-(2-methoxyethoxy)-N-(3-(trifluoromethyl)phenyl)benzamide] | 7090 nM | 1.9 nM |  |
| Nc1nccn2c([C@@H]3CC[C@H]4CCC(=O)N4C3)nc(-c3ccc(C(=O)Nc4cc(C(F)(F)F)ccn4)cc3OCCO)c12 [Example 200, 4-{8-amino-3-[(6R,8aS)-3-oxooctahydroindolizin-6-yl]imidazo[1,5-a]pyrazin-1-yl}-3-(2-hydroxyethoxy)-N-[4-(trifluoromethyl)pyridin-2-yl]benzamide] | 5450 nM |  |  |
